Data as given in patent US11325889B2, “Substituted 3-((3-aminophenyl)amino)piperidine-2,6-dione compounds, compositions thereof, and methods of treatment therewith” (Celgene Corporation, priority 2018, dated 2022).
Read-outs that look alike come from different tables or passages of the source.

Target: T1, AR protein in VCaP cells (Homo sapiens, UniProt P10275)
T1 construct: endogenous in cells; host or cells: VCaP cells
T1 sequence (P10275 1-920): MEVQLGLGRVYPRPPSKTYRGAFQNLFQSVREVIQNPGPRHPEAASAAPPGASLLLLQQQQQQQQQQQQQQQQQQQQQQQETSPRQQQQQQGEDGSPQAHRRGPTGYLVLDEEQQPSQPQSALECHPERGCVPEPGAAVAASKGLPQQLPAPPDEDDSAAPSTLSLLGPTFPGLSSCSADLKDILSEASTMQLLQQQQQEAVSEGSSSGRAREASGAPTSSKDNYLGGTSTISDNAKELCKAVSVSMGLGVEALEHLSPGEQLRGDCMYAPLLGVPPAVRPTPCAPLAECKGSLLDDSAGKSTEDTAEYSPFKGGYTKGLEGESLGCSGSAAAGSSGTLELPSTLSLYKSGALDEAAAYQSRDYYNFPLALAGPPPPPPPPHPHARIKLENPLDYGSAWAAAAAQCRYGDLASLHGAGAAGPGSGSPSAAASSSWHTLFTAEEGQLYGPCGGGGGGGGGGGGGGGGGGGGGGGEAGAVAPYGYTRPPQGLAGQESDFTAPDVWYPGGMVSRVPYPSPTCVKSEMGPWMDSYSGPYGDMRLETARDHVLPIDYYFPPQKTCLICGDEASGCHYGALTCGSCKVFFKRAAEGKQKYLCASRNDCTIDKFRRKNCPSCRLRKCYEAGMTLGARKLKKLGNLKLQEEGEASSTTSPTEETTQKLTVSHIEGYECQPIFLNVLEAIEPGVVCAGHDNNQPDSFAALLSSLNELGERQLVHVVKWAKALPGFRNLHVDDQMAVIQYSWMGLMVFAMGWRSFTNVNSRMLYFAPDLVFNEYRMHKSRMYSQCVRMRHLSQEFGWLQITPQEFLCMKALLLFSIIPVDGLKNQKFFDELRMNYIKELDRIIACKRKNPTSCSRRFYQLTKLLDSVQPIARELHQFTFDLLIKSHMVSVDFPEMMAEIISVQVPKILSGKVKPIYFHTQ
Assay: VCAP AR Degradation Assay (AR ELISA, 24 h)
Format: cell-based
Conditions: for Y (lowest measured AR level normalized to DMSO control): AR degradation efficiency; for DC50: concentration of compound when AR level = 50% of DMSO control
Summary of the method: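 VCaP cells in DMEM with 8% FBS exposed for 24 h at 37° C to a 10-point, 1:3 series (final top concentration […]; 0.1% DMSO control). Lysate AR measured by sandwich ELISA and normalized to DMSO as percent of control. DC50, EC50 and lowest AR level (Y) from four-parameter logistic fit.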

## CCc1cc(N2C(=S)N(c3cnc(C#N)c(C(F)(F)F)c3)C(=O)C2(C)C)ccc1OCC[C@H]1CCN(CC(=O)Nc2cc(NC3CCC(=O)NC3=O)ccc2F)[C@H](C)C1 (stereo partly drawn) [Cmpd 77, 2-((2R,4S)-4-(2-(4-(3-(6-cyano-5-(trifluoromethyl)pyridin-3-yl)-5,5-dimethyl-4-oxo-2-thioxoimidazolidin-1-yl)-2-ethylphenoxy)ethyl)-2-methylpiperidin-1-yl)-N-(5-(2,6-dioxopiperidin-3-ylamino)-2-fluorophenyl)acetamide]
  Y (lowest measured AR level normalized to DMSO control): * (0<Y<=25%)
read-out: DC50
  DC50: 100 to 500 nM

## CCc1cc(N2C(=S)N(c3cnc(C#N)c(C(F)(F)F)c3)C(=O)C23CCC3)ccc1OCCC1CCN(CC(=O)Nc2cc(NC3CCC(=O)NC3=O)ccc2F)CC1 (stereo not drawn) [Cmpd 56, 2-(4-(2-(4-(7-(6-cyano-5-(trifluoromethyl)pyridin-3-yl)-8-oxo-6-thioxo-5,7-diazaspiro[3.4]octan-5-yl)-2-ethylphenoxy)ethyl)piperidin-1-yl)-N-(5-(2,6-dioxopiperidin-3-ylamino)-2-fluorophenyl)acetamide]
  Y (lowest measured AR level normalized to DMSO control): * (0<Y<=25%)
read-out: DC50
  DC50: 100 to 500 nM

## CCc1cc(N2C(=S)N(c3cnc(C#N)c(C(F)(F)F)c3)C(=O)C2(C)C)ccc1OCCC1CCN(C2(C(=O)Nc3cc(Cl)cc(NC4CCC(=O)NC4=O)c3)CC2)CC1 (stereo not drawn) [Cmpd 34, N-(3-chloro-5-(2,6-dioxopiperidin-3-ylamino)phenyl)-1-(4-(2-(4-(3-(6-cyano-5-(trifluoromethyl)pyridin-3-yl)-5,5-dimethyl-4-oxo-2-thioxoimidazolidin-1-yl)-2-ethylphenoxy)ethyl)piperidin-1-yl)cyclopropanecarboxamide]
  Y (lowest measured AR level normalized to DMSO control): *** (35%<Y<50%)
read-out: DC50
  DC50: 500 to 1000 nM

## CC1(C)C(=O)N(c2cnc(C#N)c(C(F)(F)F)c2)C(=S)N1c1ccc(OCCC2CCN(CC(=O)Nc3cccc(NC4CCC(=O)NC4=O)c3)CC2)c(CCF)c1 (stereo not drawn) [Cmpd 58, 2-(4-(2-(4-(3-(6-cyano-5-(trifluoromethyl)pyridin-3-yl)-5,5-dimethyl-4-pxo-2-thioxoimidazolidin-1-yl)-2-(2-fluoroethyl)phenoxy)ethyl)piperidin-1-yl)-N-(3-(2,6-dioxopiperidin-3-ylamino)phenyl)acetamide]
  Y (lowest measured AR level normalized to DMSO control): * (0<Y<=25%)
read-out: DC50
  DC50: < 100 nM

## CCc1cc(N2C(=S)N(c3ccc(C#N)c(C(F)(F)F)c3)C(=O)C23CCC3)ccc1OCCC1CCN([C@H](C)C(=O)Nc2cc(Cl)cc(NC3CCC(=O)NC3=O)c2)CC1 (stereo partly drawn) [Cmpd 31, (2R)-N-(3-chloro-5-(2,6-dioxopiperidin-3-ylamino)phenyl)-2-(4-(2-(4-(7-(4-cyano-3-(trifluoromethyl)phenyl)-8-oxo-6-thioxo-5,7-diazaspiro[3.4]octan-5-yl)-2-ethylphenoxy)ethyl)piperidin-1-yl)propanamide]
  Y (lowest measured AR level normalized to DMSO control): * (0<Y<=25%)
read-out: DC50
  DC50: 100 to 500 nM

## CCc1cc(N2C(=S)N(c3cnc(C#N)c(C(F)(F)F)c3)C(=O)C2(C)C)ccc1OCC[C@H]1C[C@H]2CC[C@@H](C1)N2CC(=O)Nc1cc(Cl)cc(NC2CCC(=O)NC2=O)c1 (stereo partly drawn) [Cmpd 63, N-(3-chloro-5-(2,6-dioxopiperidin-3-ylamino)phenyl)-2-((1R,3r,5S)-3-(2-(4-(3-(6-cyano-5-(trifluoromethyl)pyridin-3-yl)-5,5-dimethyl-4-oxo-2-thioxoimidazolidin-1-yl)-2-ethylphenoxy)ethyl)-8-azabicyclo[3.2.1]octan-8-yl)acetamide]
  Y (lowest measured AR level normalized to DMSO control): ** (25%<Y<=35%)
  DC50: < 100 nM

## CCc1cc(N2C(=S)N(c3cnc(C#N)c(C(F)(F)F)c3)C(=O)C2(C)C)ccc1OCCC1CCN([C@H](C)C(=O)Nc2cccc(N[C@H]3CCC(=O)NC3=O)c2)CC1 [Cmpd 47, (R)-2-(4-(2-(4-(3-(6-cyano-5-(trifluoromethyl)pyridin-3-yl)-5,5-dimethyl-4-oxo-2-thioxoimidazolidin-1-yl)-2-ethylphenoxy)ethyl)piperidin-1-yl)-N-(3-((S)-2,6-dioxopiperidin-3-ylamino)phenyl)propanamide]
  Y (lowest measured AR level normalized to DMSO control): * (0<Y<=25%)
read-out: DC50
  DC50: < 100 nM

## CC(F)(F)c1cc(N2C(=S)N(c3ccc(C#N)c(C(F)(F)F)c3)C(=O)C2(C)C)ccc1OCCC1CCN(CC(=O)Nc2cc(Cl)cc(NC3CCC(=O)NC3=O)c2)CC1 (stereo not drawn) [Cmpd 30, N-(3-chloro-5-(2,6-dioxopiperidin-3-ylamino)phenyl)-2-(4-(2-(4-(3-(4-cyano-3-(trifluoromethyl)phenyl)-5,5-dimethyl-4-oxo-2-thioxoimidazolidin-1-yl)-2-(1,1-difluoroethyl)phenoxy)ethyl)piperidin-1-yl)acetamide]
  Y (lowest measured AR level normalized to DMSO control): * (0<Y<=25%)
read-out: DC50
  DC50: 100 to 500 nM

## CCc1cc(N2C(=S)N(c3cnc(C#N)c(C(F)(F)F)c3)C(=O)C23CCC3)ccc1OCCC1CCN([C@H](C)C(=O)Nc2cccc(NC3CCC(=O)NC3=O)c2)CC1 (stereo partly drawn) [Cmpd 84, (2R)-2-(4-(2-(4-(7-(6-cyano-5-(trifluoromethyl)pyridin-3-yl)-8-oxo-6-thioxo-5,7-diazaspiro[3.4]octan-5-yl)-2-ethylphenoxy)ethyl)piperidin-1-yl)-N-(3-(2,6-dioxopiperidin-3-ylamino)phenyl)propanamide]
  Y (lowest measured AR level normalized to DMSO control): * (0<Y<=25%)
read-out: DC50
  DC50: < 100 nM
